Experimental data from patent US11420977B2, “Late SV40 (LSF) inhibitors” (Trustees of Boston University, priority 2018, dated 2022).

Legend:
Format in all cases: cell-based
SNU-423 cells = test: MTS cell proliferation assay, SNU-423; conditions: Homo sapiens, 120 hrs incubation
Description: (§1) Cell lines and culture conditions: Human colon cancer cells Caco-2, HT29 and HCT15, human pancreatic cancer cells BxPC3, CFPAC-1, and CAPAN-2, liver cancer cells SNU423 and kidney cells HEK293, were obtained from American Type Culture Collection (Rockville, USA). HeLa, DLD1, U937, THP-1, and NIH3T3 cells were obtained from ATCC. Huh7 cells were obtained from (Japanese Cancer Resources Bank). HeLa cells, Huh7, DLD1 and NIH-3T3 cells were cultured in DMEM (Dulbecco's modification of Eagle's Medium; Corning) supplemented with 10% Fetal Bovine Serum (FBS; Invitrogen) and 10% Fetal Calf Serum (FCS; Atlanta Biologicals) respectively. U937, BxPC3, HCT15, SNU423 and THP-1 cells were grown in RPMI-1640 (Roswell Park Memorial Institute; Corning) supplemented with 10% Fetal Bovine Serum (FBS; Invitrogen). CFPAC-1 cells were cultured in Iscove's Modified Dulbecco's Medium (ATCC) supplemented with 10% FBS. CAPAN-2 and HT29 cells were cultured in McCoy's 5a medium supplemented with 10% FBS. Caco2 and HEK293 cells were grown in Eagle's Minimum Essential Medium (ATCC) with final 20% FBS concentration. All cells were maintained at 37° C. in 5% CO2 at constant 70% humidity.
(§2) MTS cell proliferation assay: Cells were detached from the plates using trypsin (0.25% for 3 mins, ATCC) and counted using a hemocytometer and were plated at 3000-1500 cells per well, in a 96-well format. The cells were seeded in the inner wells of 96 well plates, and media was added to the outer wells (blank). For NIH-3T3, 1500 cells were seeded in the inner wells of 96-well plates, and after 20 hours cells were treated with compound or DMSO (vehicle control) at appropriate concentrations (DMSO at final concentration of 1%). For other adherent cells 3000 HeLa, BxPC3, CFPAC-1, CAPAN-2, HEK293, HCT15, HT29, CaCo2, DLD1, Huh7 or SNU423 cells were seeded in in each well approximately 20 hrs prior to the treatment. For U937 and THP-1 suspension cells, 2500 cells were added to the wells of a 96-well plate on the day of treatment. After a 72-hour (or 120 hrs for BxPC3, CAPAN-2, SNU423) incubation with compound or vehicle, cell growth was assessed via the Promega CellTiter 96® AQueous One Solution Cell Proliferation Assay, a colorimetric method to determine the number of viable cells. 20 μL of the CellTiter 96® AQueous One Solution Reagent was added directly into cultured wells and incubated for approximately one hour, after which the absorbance at 490 nm was read with a 96-well plate reader (Opys MR Microplate Reader). GI50 values were determined from plots of the percentage of compound-treated cell growth to vehicle cell growth vs. compound concentration (GraphPad Prism; non-linear regression, log inhibitor verse normalized response with variable slope).

HEK-293 cells = test: MTS cell proliferation assay, HEK-293; conditions: Homo sapiens, HEK293, 72-hour incubation
Description: (§3) Cell lines and culture conditions: Human colon cancer cells Caco-2, HT29 and HCT15, human pancreatic cancer cells BxPC3, CFPAC-1, and CAPAN-2, liver cancer cells SNU423 and kidney cells HEK293, were obtained from American Type Culture Collection (Rockville, USA). HeLa, DLD1, U937, THP-1, and NIH3T3 cells were obtained from ATCC. Huh7 cells were obtained from (Japanese Cancer Resources Bank). HeLa cells, Huh7, DLD1 and NIH-3T3 cells were cultured in DMEM (Dulbecco's modification of Eagle's Medium; Corning) supplemented with 10% Fetal Bovine Serum (FBS; Invitrogen) and 10% Fetal Calf Serum (FCS; Atlanta Biologicals) respectively. […]
(§4) MTS cell proliferation assay: Cells were detached from the plates using trypsin (0.25% for 3 mins, ATCC) and counted using a hemocytometer and were plated at 3000-1500 cells per well, in a 96-well format. […] After a 72-hour (or 120 hrs for BxPC3, CAPAN-2, SNU423) incubation with compound or vehicle, cell growth was assessed via the Promega CellTiter 96® AQueous One Solution Cell Proliferation Assay, a colorimetric method to determine the number of viable cells. 20 μL of the CellTiter 96® AQueous One Solution Reagent was added directly into cultured wells and incubated for approximately one hour, after which the absorbance at 490 nm was read with a 96-well plate reader (Opys MR Microplate Reader). […]

NIH 3T3 cells = test: MTS cell proliferation assay, NIH 3T3; conditions: Mus musculus, NIH3T3, 72-hour incubation
Description: as §1, with “All cells were maintained at 37° C. in 5% CO2 at constant 70% humidity.” left out
(§5) MTS cell proliferation assay: Cells were detached from the plates using trypsin (0.25% for 3 mins, ATCC) and counted using a hemocytometer and were plated at 3000-1500 cells per well, in a 96-well format. […] After a 72-hour (or 120 hrs for BxPC3, CAPAN-2, SNU423) incubation with compound or vehicle, cell growth was assessed via the Promega CellTiter 96® AQueous One Solution Cell Proliferation Assay, a colorimetric method to determine the number of viable cells. 20 μL of the CellTiter 96® AQueous One Solution Reagent was added directly into cultured wells and incubated for approximately one hour, after which the absorbance at 490 nm was read with a 96-well plate reader (Opys MR Microplate Reader). GI50 values were determined from plots of the percentage of compound-treated cell growth to vehicle cell growth vs. compound concentration (GraphPad Prism; non-linear regression, log inhibitor verse normalized response with variable slope).

BxPC-3 cells = test: MTS cell proliferation assay, BxPC-3; conditions: Homo sapiens, 120 hrs incubation
Description: as §3, §4

CAPAN-2 cells = test: MTS cell proliferation assay, CAPAN-2; conditions: Homo sapiens, 120 hrs incubation
Description: as §3, §4

CFPAC-1 cells = test: MTS cell proliferation assay, CFPAC-1; conditions: Homo sapiens, 72-hour incubation
Description: as §3, §4

CaCo-2 cells = test: MTS cell proliferation assay, CaCo-2; conditions: Homo sapiens, 72-hour incubation
Description: as §3, §4

HCT-15 cells = test: MTS cell proliferation assay, HCT-15; conditions: Homo sapiens, 72-hour incubation
Description: as §3, §4

HT-29 cells = test: MTS cell proliferation assay, HT-29; conditions: Homo sapiens, 72-hour incubation
Description: as §3, §4

U937 cells = test: MTS cell proliferation assay, U937; conditions: Homo sapiens, U-937, 72-hour incubation
Description: as §3, §4

THP-1 cells = test: MTS cell proliferation assay, THP-1; conditions: Homo sapiens, 72-hour incubation
Description: as §3, §4

HuH7 cells = test: MTS cell proliferation assay, HuH7; conditions: Homo sapiens, Huh-7, 72-hour incubation
Description: as §1, §2

HeLa cells = test: MTS cell proliferation assay, HeLa; conditions: Homo sapiens, 72-hour incubation
Description: as §1, with “All cells were maintained at 37° C. in 5% CO2 at constant 70% humidity.” left out
as §5

RPE-hTERT Flp-In cells = test: FQI34/FQI1 comparison, mitotic defects in RPE-hTERT Flp-In cells
Description: RPE-hTERT Flp-In cells were incubated in serum-free DMEM:F12 media for 24 hours to synchronize the cells in G0/G1. Cells were stimulated to reenter the cell cycle with DMEM:F12 media containing 10% Fetal Bovine Serum. After 24 hours, the cells were treated with DMSO (vehicle), FQI1 (2.5 μM or 5 μM), or FQI34 (250 nM or 500 nM) for one hour. The cells were washed twice with 1×Phosphate-buffered Saline and fixed with PHEM (3.7% formaldehyde in 100 mM PIPES at pH 6.8, 10 mM EGTA, 1 mM magnesium chloride, and 0.2% Triton X-100) for 10 minutes at room temperature. The fixed cells were stained for α-tubulin using a mouse anti-α-tubulin antibody (Fisher #62204). Secondary antibodies were: DMSO/FQI1 samples—goat anti-mouse IgG conjugated to Alexa 546 (Thermo Fisher #A11003); FQI34 samples—goat anti-mouse IgG conjugated to Texas Red (Fisher #T-862). DNA was stained with Hoechst 33342. Cells were imaged using a Nikon NiE using the 40× objective and images were captured using a DS-Qi1 Mc 12 bit camera. Scale bars and merged images were generated using Fiji software.

GI50 (SNU-423 cells): 384 nM
GI50 (BxPC-3 cells): 270 nM
GI50 (CaCo-2 cells): 501 nM
GI50 (HCT-15 cells): 224 nM
GI50 (HT-29 cells): 316 nM
GI50 (U937 cells): 250 nM
GI50 (THP-1 cells): 4800 nM
GI50 (HuH7 cells): 141 nM
GI50 (HeLa cells): 462 nM
Compound: CCOc1cc(N(C)C)ccc1C1CC(=O)Nc2cc3c(cc21)OCO3 (stereo not drawn) [FQI-34]
GI50 (HEK-293 cells): 219 nM
GI50 (NIH 3T3 cells): 730 nM
GI50 (CAPAN-2 cells): 239 nM
GI50 (CFPAC-1 cells): 676 nM
potency for causing mitotic defects relative to FQI1 (RPE-hTERT Flp-In cells; FQI34 250 nM or 500 nM vs FQI1 2.5 μM or 5 μM, one hour): at least 10 fold
chromosome and spindle phenotype (DNA and α-tubulin immunofluorescence) (RPE-hTERT Flp-In cells; one hour treatment, FIG. 33): condensed, but nonaligned chromosomes and disrupted spindles
